# Assays:
# Salmonella typhi = assay: MIC against clinical isolates; format: cell-based; conditions: unit assumed
# Proteus morganii = assay: MIC against clinical isolates; format: cell-based; conditions: clinical isolate, unit assumed
# Proteus vulgaris = assay: MIC against clinical isolates; format: cell-based; conditions: clinical isolate, unit assumed
# Staphylococcus aureus = assay: MIC against clinical isolates; format: cell-based; conditions: unit assumed
# [1] = tested on: Pseudomonas aeruginosa I.F.O.; assay: MIC against standard strain, plate method; format: cell-based; conditions: unit assumed
# Method in brief: (§1)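 Minimum inhibitory concentrations were determined on agar plates of heart infusion medium (pH 7.4) inoculated with 10^4 cells per plate.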
# [2] = tested on: Staphylococcus aureus 209p; assay: MIC against standard strain, plate method; format: cell-based; conditions: unit assumed
# Method in brief: as §1
# Proteus vulgaris 3027 = assay: MIC against standard strain, plate method; format: cell-based; conditions: Proteus vulgaris 3027, standard strain; unit assumed
# Method in brief: as §1
# Klebsiella pneumoniae [3] = assay: MIC against standard strain, plate method; format: cell-based; conditions: unit assumed
# Method in brief: as §1
# Escherichia coli NIHJ = assay: MIC against standard strain, plate method; format: cell-based; conditions: unit assumed
# Method in brief: as §1
# Proteus rettgeri = assay: MIC against clinical isolates; format: cell-based; conditions: clinical isolate, unit assumed
# β-lactamase = assay: Resistant activity against β-lactamase, iodometric assay; format: biochemical, Pseudomonas aeruginosa GN 238; conditions: relative to Potassium Penicillin G = 100
# Method: (3) Resistant activity against β-lactamase, Pseudomonas aergionan GN 238:
# The resistant activity of each compound against β-lactamase was measured in the manner described below.
# β-Lactamase was prepared from Pseudomonas aeruginosa GN 238. This microorganism was cultured in 100 ml of a medium containing 2 g of yeast extract, 10 g of polypeptone, 2 g of glucose, 7 g of disodium hydrogen phosphate, 2 g of potassium dihydrogen phosphate, 1.2 g of ammonium sulfate and 0.4 g of magnesium sulfate, per liter, in a 500-ml Erlenmeyer flask for 6 hrs. at 37° C with shaking. The resulting cells were collected by centrifugation (5,000 r.p.m. × 10 min.), washed three times with 0.1 M phosphate buffer (pH 7.0). Subsequently, the cells were subjected to sonication (20 KHz, 20 min.) and then centrifuged at 15,000 r.p.m. for 60 min. By using the supernatant of enzyme fluid, the resistance of each compound against β-lactamase was determined by the iodometric assay method. Each numeral shown in Table 7 is a relative activity value calculated by assuming as 100 the activity of the control Potassium Penicillin G.
# Escherichia coli = assay: MIC against clinical isolates; format: cell-based; conditions: unit assumed
# Salmonella typhi-murium = assay: MIC against clinical isolates; format: cell-based; conditions: unit assumed
# Pseudomonas aeruginosa = assay: MIC against clinical isolates; format: cell-based; conditions: unit assumed
# Shigella sonnei = assay: MIC against clinical isolates; format: cell-based; conditions: unit assumed
# Method: (§2) The minimum inhibitory concentrations (MIC) was determined by the plate method disclosed in "Chemotherapy" (Japan), Vol. 16, (1968), pages 98 - 99. The culture medium used was a Heart infusion agar (pH 7.4). The number of the cells per plate used in the inoculum as 10^4 (10^6 cells/ml).
# (§3) MIC was determined in the same manner as in the preceding paragraph (1).
# Shigella flexneri = assay: MIC against clinical isolates; format: cell-based; conditions: unit assumed
# Method: as §2, §3
# Proteus mirabilis = assay: MIC against clinical isolates; format: cell-based; conditions: clinical isolate, unit assumed
# Klebsiella pneumoniae [4] = assay: MIC against clinical isolates; format: cell-based; conditions: unit assumed
# [5] = clinical isolate GN (number not given; Table 5-3)
compound,measurement,setting,value
"CCCCCN1CCN(C(=O)N[C@@H](C(=O)N[C@@H]2C(=O)N3[C@@H]2SC(C)(C)[C@@H]3C(=O)O)c2ccccc2)C(=O)C1=O (single isomer, unassigned) [compound 45]",MIC,Salmonella typhi; clinical isolate SL 819,1.57 µg/mL
same,MIC,Salmonella typhi; clinical isolate SL 2169,0.79 µg/mL
same,MIC,Proteus morganii,0.79 µg/mL
same,MIC,Proteus vulgaris,< 0.4 µg/mL
same,MIC,Staphylococcus aureus; clinical isolate F-1,6.25 µg/mL
same,MIC,Staphylococcus aureus; clinical isolate F-4,6.25 µg/mL
same,MIC,Staphylococcus aureus; clinical isolate F-5,> 200 µg/mL
same,MIC,Staphylococcus aureus; clinical isolate MS 8588,3.13 µg/mL
same,MIC,Staphylococcus aureus; clinical isolate MS 8596,3.13 µg/mL
same,MIC,Staphylococcus aureus; clinical isolate MS 8619,0.79 µg/mL
same,MIC,Staphylococcus aureus; clinical isolate MS 8684,3.13 µg/mL
same,MIC,Staphylococcus aureus; clinical isolate MS 8713,6.25 µg/mL
same,MIC,[1],12.5 µg/mL
same,MIC,[2],0.79 µg/mL
same,MIC,Proteus vulgaris 3027,0.4 µg/mL
same,MIC,Klebsiella pneumoniae [3],0.79 µg/mL
same,MIC,Escherichia coli NIHJ,< 0.1 µg/mL
same,MIC,Proteus rettgeri,6.25 µg/mL
same,Relative activity,β-lactamase,16%
same,MIC,Escherichia coli; clinical isolate GN 3435,0.79 µg/mL
same,MIC,Escherichia coli; clinical isolate GN 3465,25 µg/mL
same,MIC,Escherichia coli; clinical isolate GN 3611,> 200 µg/mL
same,MIC,Escherichia coli; clinical isolate K-1,0.79 µg/mL
same,MIC,Escherichia coli; clinical isolate K-3,200 µg/mL
same,MIC,Escherichia coli; clinical isolate K-4,0.79 µg/mL
same,MIC,Salmonella typhi-murium; clinical isolate SL 858,0.79 µg/mL
same,MIC,Salmonella typhi-murium; clinical isolate SL 2136,200 µg/mL
same,MIC,Pseudomonas aeruginosa; clinical isolate GN 82,12.5 µg/mL
same,MIC,Pseudomonas aeruginosa; clinical isolate GN 163,12.5 µg/mL
same,MIC,Pseudomonas aeruginosa; clinical isolate GN 221,3.13 µg/mL
same,MIC,Pseudomonas aeruginosa; clinical isolate GN 376,25 µg/mL
same,MIC,Pseudomonas aeruginosa; clinical isolate GN 383,25 µg/mL
same,MIC,Pseudomonas aeruginosa; clinical isolate GN 1035,50 µg/mL
same,MIC,Pseudomonas aeruginosa; clinical isolate GN 1091,12.5 µg/mL
same,MIC,Pseudomonas aeruginosa; clinical isolate GN 2565,25 µg/mL
same,MIC,Pseudomonas aeruginosa; clinical isolate GN 2987,12.5 µg/mL
same,MIC,Pseudomonas aeruginosa; [5],25 µg/mL
same,MIC,Pseudomonas aeruginosa; clinical isolate S-1,25 µg/mL
same,MIC,Pseudomonas aeruginosa; clinical isolate S-2,25 µg/mL
same,MIC,Pseudomonas aeruginosa; clinical isolate S-3,50 µg/mL
same,MIC,Pseudomonas aeruginosa; clinical isolate S-4,25 µg/mL
same,MIC,Shigella sonnei; clinical isolate JS 11232,25 µg/mL
same,MIC,Shigella flexneri; clinical isolate JS 11215,25 µg/mL
same,MIC,Proteus mirabilis,< 0.4 µg/mL
same,MIC,Klebsiella pneumoniae [4]; clinical isolate GN 3850,3.13 µg/mL
same,MIC,Klebsiella pneumoniae [4]; clinical isolate GN 4081,25 µg/mL
same,MIC,Klebsiella pneumoniae [4]; clinical isolate GN 4117,25 µg/mL
"CCCCCCN1CCN(C(=O)N[C@@H](C(=O)N[C@@H]2C(=O)N3[C@@H]2SC(C)(C)[C@@H]3C(=O)O)c2ccccc2)C(=O)C1=O (single isomer, unassigned) [compound 46]",MIC,Salmonella typhi; clinical isolate SL 819,1.57 µg/mL
same,MIC,Salmonella typhi; clinical isolate SL 2169,0.79 µg/mL
same,MIC,Proteus morganii,< 0.4 µg/mL
same,MIC,Proteus vulgaris,< 0.4 µg/mL
same,MIC,Staphylococcus aureus; clinical isolate F-1,6.25 µg/mL
same,MIC,Staphylococcus aureus; clinical isolate F-3,0.79 µg/mL
same,MIC,Staphylococcus aureus; clinical isolate F-4,6.25 µg/mL
same,MIC,Staphylococcus aureus; clinical isolate F-5,> 200 µg/mL
same,MIC,Staphylococcus aureus; clinical isolate MS 8596,3.13 µg/mL
same,MIC,Staphylococcus aureus; clinical isolate MS 8619,< 0.4 µg/mL
same,MIC,Staphylococcus aureus; clinical isolate MS 8713,6.25 µg/mL
same,MIC,[1],6.25 µg/mL
same,MIC,[2],0.2 µg/mL
same,MIC,Proteus vulgaris 3027,0.4 µg/mL
same,MIC,Klebsiella pneumoniae [3],0.4 µg/mL
same,MIC,Escherichia coli NIHJ,< 0.1 µg/mL
same,MIC,Proteus rettgeri,3.13 µg/mL
same,Relative activity,β-lactamase,12%
same,MIC,Escherichia coli; clinical isolate GN 3435,< 0.4 µg/mL
same,MIC,Escherichia coli; clinical isolate GN 3452,0.79 µg/mL
same,MIC,Escherichia coli; clinical isolate GN 3465,6.25 µg/mL
same,MIC,Escherichia coli; clinical isolate GN 3481,3.13 µg/mL
same,MIC,Escherichia coli; clinical isolate GN 3611,> 200 µg/mL
same,MIC,Escherichia coli; clinical isolate K-1,0.79 µg/mL
same,MIC,Escherichia coli; clinical isolate K-2,0.79 µg/mL
same,MIC,Escherichia coli; clinical isolate K-3,50 µg/mL
same,MIC,Escherichia coli; clinical isolate K-4,< 0.4 µg/mL
same,MIC,Salmonella typhi-murium; clinical isolate SL 858,< 0.4 µg/mL
same,MIC,Salmonella typhi-murium; clinical isolate SL 2136,50 µg/mL
same,MIC,Pseudomonas aeruginosa; clinical isolate GN 82,6.25 µg/mL
same,MIC,Pseudomonas aeruginosa; clinical isolate GN 163,6.25 µg/mL
same,MIC,Pseudomonas aeruginosa; clinical isolate GN 221,12.5 µg/mL
same,MIC,Pseudomonas aeruginosa; clinical isolate GN 376,25 µg/mL
same,MIC,Pseudomonas aeruginosa; clinical isolate GN 383,25 µg/mL
same,MIC,Pseudomonas aeruginosa; clinical isolate GN 1035,50 µg/mL
same,MIC,Pseudomonas aeruginosa; clinical isolate GN 1091,12.5 µg/mL
same,MIC,Pseudomonas aeruginosa; clinical isolate GN 2565,12.5 µg/mL
same,MIC,Pseudomonas aeruginosa; clinical isolate GN 2987,6.25 µg/mL
same,MIC,Pseudomonas aeruginosa; [5],12.5 µg/mL
same,MIC,Pseudomonas aeruginosa; clinical isolate S-1,50 µg/mL
same,MIC,Pseudomonas aeruginosa; clinical isolate S-2,50 µg/mL
same,MIC,Pseudomonas aeruginosa; clinical isolate S-3,50 µg/mL
same,MIC,Pseudomonas aeruginosa; clinical isolate S-4,50 µg/mL
same,MIC,Shigella sonnei; clinical isolate JS 11232,12.5 µg/mL
same,MIC,Shigella sonnei; clinical isolate JS 11755,0.79 µg/mL
same,MIC,Shigella flexneri; clinical isolate JS 11215,6.25 µg/mL
same,MIC,Shigella flexneri; clinical isolate JS 11839,0.79 µg/mL
same,MIC,Proteus mirabilis,< 0.4 µg/mL
same,MIC,Klebsiella pneumoniae [4]; clinical isolate GN 917,0.79 µg/mL
same,MIC,Klebsiella pneumoniae [4]; clinical isolate GN 4081,12.5 µg/mL
same,MIC,Klebsiella pneumoniae [4]; clinical isolate GN 4117,12.5 µg/mL
"CCCCCCCCN1CCN(C(=O)N[C@@H](C(=O)N[C@@H]2C(=O)N3[C@@H]2SC(C)(C)[C@@H]3C(=O)O)c2ccccc2)C(=O)C1=O (single isomer, unassigned) [compound 47]",MIC,Salmonella typhi; clinical isolate SL 819,3.13 µg/mL
same,MIC,Salmonella typhi; clinical isolate SL 2169,1.57 µg/mL
same,MIC,Proteus morganii,< 0.4 µg/mL
same,MIC,Proteus vulgaris,< 0.4 µg/mL
same,MIC,Staphylococcus aureus; clinical isolate F-1,6.25 µg/mL
same,MIC,Staphylococcus aureus; clinical isolate F-4,12.5 µg/mL
same,MIC,Staphylococcus aureus; clinical isolate F-5,> 200 µg/mL
same,MIC,Staphylococcus aureus; clinical isolate MS 8619,< 0.4 µg/mL
same,MIC,Staphylococcus aureus; clinical isolate MS 8713,6.25 µg/mL
same,MIC,[1],6.25 µg/mL
same,MIC,[2],< 1.57 µg/mL
same,MIC,Proteus vulgaris 3027,< 1.57 µg/mL
same,MIC,Klebsiella pneumoniae [3],< 1.57 µg/mL
same,MIC,Escherichia coli NIHJ,< 1.57 µg/mL
same,MIC,Proteus rettgeri,0.79 µg/mL
same,Relative activity,β-lactamase,1%
same,MIC,Escherichia coli; clinical isolate GN 3435,0.79 µg/mL
same,MIC,Escherichia coli; clinical isolate GN 3465,6.25 µg/mL
same,MIC,Escherichia coli; clinical isolate GN 3611,> 200 µg/mL
same,MIC,Escherichia coli; clinical isolate K-3,100 µg/mL
same,MIC,Escherichia coli; clinical isolate K-4,0.79 µg/mL
same,MIC,Salmonella typhi-murium; clinical isolate SL 858,< 0.4 µg/mL
same,MIC,Salmonella typhi-murium; clinical isolate SL 2136,50 µg/mL
same,MIC,Pseudomonas aeruginosa; clinical isolate GN 82,12.5 µg/mL
same,MIC,Pseudomonas aeruginosa; clinical isolate GN 163,12.5 µg/mL
same,MIC,Pseudomonas aeruginosa; clinical isolate GN 221,25 µg/mL
same,MIC,Pseudomonas aeruginosa; clinical isolate GN 376,50 µg/mL
same,MIC,Pseudomonas aeruginosa; clinical isolate GN 383,25 µg/mL
same,MIC,Pseudomonas aeruginosa; clinical isolate GN 1035,25 µg/mL
same,MIC,Pseudomonas aeruginosa; clinical isolate GN 1091,12.5 µg/mL
same,MIC,Pseudomonas aeruginosa; clinical isolate GN 2565,25 µg/mL
same,MIC,Pseudomonas aeruginosa; clinical isolate GN 2987,12.5 µg/mL
same,MIC,Pseudomonas aeruginosa; [5],25 µg/mL
same,MIC,Pseudomonas aeruginosa; clinical isolate S-1,50 µg/mL
same,MIC,Pseudomonas aeruginosa; clinical isolate S-2,50 µg/mL
same,MIC,Pseudomonas aeruginosa; clinical isolate S-3,50 µg/mL
same,MIC,Pseudomonas aeruginosa; clinical isolate S-4,50 µg/mL
same,MIC,Shigella sonnei; clinical isolate JS 11232,6.25 µg/mL
same,MIC,Shigella sonnei; clinical isolate JS 11755,0.79 µg/mL
same,MIC,Shigella flexneri; clinical isolate JS 11215,6.25 µg/mL
same,MIC,Proteus mirabilis,< 0.4 µg/mL
same,MIC,Klebsiella pneumoniae [4]; clinical isolate GN 4081,12.5 µg/mL
same,MIC,Klebsiella pneumoniae [4]; clinical isolate GN 4117,12.5 µg/mL

# — patent US4110327A, “2,3 Diketo-piperazinocarbonylamino alkanoic acids and derivatives” (Toyama Chemical Co., Ltd., priority 1974, dated 1978)
